Among the data in US8247429B2, “Tricyclic compound and pharmaceutical use thereof” (Takeda Pharmaceutical Company Limited, priority 2006, dated 2012) are IC50 and melting point values, retold here.

SMILES strings stand for the structures.

Data set [1] deals with T1, human melatonin 2 receptors (human MT2 receptors) (Homo sapiens, UniProt P49286).
T1 construct: expressed in transfected cells; membrane fraction used
T1 sequence (P49286 1-362): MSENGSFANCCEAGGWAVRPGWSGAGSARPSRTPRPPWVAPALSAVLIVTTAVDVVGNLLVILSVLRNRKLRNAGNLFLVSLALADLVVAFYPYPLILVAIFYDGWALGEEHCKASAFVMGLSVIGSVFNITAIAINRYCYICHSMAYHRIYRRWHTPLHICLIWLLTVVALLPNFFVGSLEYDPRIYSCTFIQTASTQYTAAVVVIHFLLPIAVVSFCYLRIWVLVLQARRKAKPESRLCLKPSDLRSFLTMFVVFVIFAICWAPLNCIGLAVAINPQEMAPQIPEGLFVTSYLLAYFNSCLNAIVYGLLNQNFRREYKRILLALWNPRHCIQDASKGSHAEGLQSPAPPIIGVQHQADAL
In words: Melatonin receptor binding inhibitory test (2-[125I] Iodomelatonin), MT2. The note with it: membrane fraction of CHO-hMT2 cells, 25° C. for 2.5 hr. Here is the method: (§1) Melatonin receptor binding inhibitory test
(2) Preparation of CHO-hMT2 Cells Expressing Human Melatonin 2 Receptors
A cDNA fragment (SEQ ID NO: 2) encoding full-length of human melatonin 2 receptors (human MT2 receptors) was incorporated into expression vector pCMV-Script (Stratagene, #212220) to give the plasmid that was pCMV-human MT2 receptors expression vector for animal cell expression. CHO-K1 cells (ATCC, #CCL-61) were plated at the concentration of 1.5×10^5 cells/cm^2 in a 6 well plate (ASAHI TECHNO GLASS), and cultured under the conditions of 37° C., 5% CO2 for 24 hr. For gene transfection, solution obtained by blending pCMV-human MT2 receptors expression vector (1.9 μg), Lipofectamine Transfection Reagent (Invitrogen, #18324-012) (11.3 μL) and Minimum Essential Medium Eagle (MEM) medium (Sigma, M8042) (93.8 μL), and reacting at room temperature for 20 min was added to the cells per one well. The transfected cells were cultured in MEM medium containing 10% FBS (Life Technology) and 300 μg/mL Geneticin (GIBCO, #10131), and the cell line that stably expressed the plasmid gene was selected. By a receptor binding assay using 2-[^125I] Iodomelatonin, CHO-hMT2 cell line showing specific binding of 2-[^125I] Iodomelatonin was selected from the obtained clones.
(§2) (3) Preparation of Cellular Membrane Fraction of CHO Cell (CHO-hMelR7 and CHO-hMT2) Stably Expressing Human MT1 and MT2 Receptors
(§3) CHO-hMelR7 and CHO-hMT2 cells were plated using Cellfactory (Nunc, #170009) under the conditions of 1×10^8 cells/2000 mL/flask. The cells were grown to confluent, and recovered by the following method. As the medium for CHO-hMelR7 and CHO-hMT2, MEM α containing 10% FBS and penicillin/streptomycin was used. […] of geneticin was added to the medium for CHO-hMT2.
(§4) The medium was discarded, cells were washed twice with 200 mL of EDTA/PBS(−), 200 mL of EDTA/PBS(−) was further added, and the cells were stood still at room temperature for 20 min until they were released. The cells were recovered in four 50 mL tubes (Becton Dickinson, #352070), and centrifuged at 1,500 rpm for 10 min at 4° C. using a low speed cooling centrifuge (Hitachi, CF7D2). The supernatant was discarded, the pellets in the four tubes were suspended in 10 mL of PBS(−), and combined in one tube (Becton Dickinson, #352070). The mixture was further centrifuged at 1,500 rpm for 10 min at 4° C., and the obtained pellets were suspended in 20 mL of ice-cooled homogenizing buffer [10 mM NaHCO3, 5 mM EDTA, Protease inhibitor Complete (Roche), pH 7.4]. The cell suspension was homogenized 3 times using a polytron homogenizer at 20,000 rpm for 30 sec. The obtained homogenate was centrifuged (2,000 rpm, 10 min, 4° C.) using a low speed cooling centrifuge. The supernatant was recovered in an ultracentrifugation tube and ultracentrifuged (40,000 rpm, 60 min, 4° C.) using an ultracentrifuge (Beckman, L-90K). To the obtained pellets was added a suspending buffer [50 mM Tris-HCl, 1 mM EDTA, Protease inhibitor Complete (Roche), pH 7.4], and the pellets were suspended by pipetting. The protein concentration of this suspension was measured, diluted to 2 mg/mL to give cellular membrane fractions of CHO-hMelR7 and CHO-hMT2 cells. The membrane fractions were dispensed to 1.5 mL tubes (Eppendorf, #0030120.086) by 100 μL, preserved in a freezer (−80° C.) and used for a binding assay. Protein was quantified using BCA protein assay kit (Pierce) with BSA as the standard.
(§5) (4) Preparation of Membrane Fraction Suspension
(§6) Immediately before use, the membrane fractions of CHO-hMelR7 and CHO-hMT2 cells of the above-mentioned (3) were diluted 20-fold with assay buffer (50 mM Tris-HCl, pH 7.7).
(§7) (5) Preparation of 2-[^125I] Iodomelatonin Solution
(§8) 2-[^125I] Iodomelatonin (#NEX236, PerkinElmer) was diluted with the assay buffer to 400 pM for MT1 and 1 nM for MT2.
(§9) The assay buffer (80 μL) of the above-mentioned (4) was added to each well of a 96-well plate (type 3363, Corning). […]

Data set [2] addresses T2, human melatonin 1 receptors (human MT1 receptors) (Homo sapiens, UniProt P48039).
T2 construct: expressed in transfected cells; membrane fraction used
As to the kind of experiment: Melatonin receptor binding inhibitory test (2-[125I] Iodomelatonin), MT1. The note with it: membrane fraction of CHO-hMelR7 cells, 25° C. for 2.5 hr. As to the method:
as §1
(1) Preparation of CHO-hMelR7 Cells Expressing Human Melatonin 1 Receptors
A cDNA fragment (SEQ ID NO: 1) encoding full-length of human melatonin 1 receptors (human MT1 receptors) was incorporated into expression vector pAKKO-111H (former name pAKKO1.11H; Biochim Biophys Acta. Vol. 1219(2), pp. 251-259, 1994) to give plasmid pAKKO-hMelR7 for animal cell expression. CHO/dhfr-cells (ATCC, #CRL-9096) were plated at a concentration of 0.3×10^6 cells/dish in a 6 cm culture dish (Becton Dickinson), and cultured under the conditions of 37° C., 5% CO2 for 48 hr. The cells were transfected with pAKKO-hMelR7 plasmid DNA (5 μg) using Cellphect Transfection Kit (Amersham, #27-9268-01). The transfected cells were cultured in Dulbecco's modified Eagle medium (DMEM) (Sigma, #D6046) containing 10% dialyzed FBS (Biowest, #S180D), 1× Non-Essential Amino Acid (Invitrogen, #11140-050) and 50 μg/mL Gentamycin (Invitrogen, #15750-060), and the cell line that stably expressed the plasmid gene was selected. By a receptor binding assay using 2-[^125I] Iodomelatonin, CHO-hMelR7 cell line showing specific binding of 2-[^125I] Iodomelatonin was selected from the obtained clones.
as §2, §3, §4, §5, §6, §7, §8, §9

T2 sequence (P48039 whole entry): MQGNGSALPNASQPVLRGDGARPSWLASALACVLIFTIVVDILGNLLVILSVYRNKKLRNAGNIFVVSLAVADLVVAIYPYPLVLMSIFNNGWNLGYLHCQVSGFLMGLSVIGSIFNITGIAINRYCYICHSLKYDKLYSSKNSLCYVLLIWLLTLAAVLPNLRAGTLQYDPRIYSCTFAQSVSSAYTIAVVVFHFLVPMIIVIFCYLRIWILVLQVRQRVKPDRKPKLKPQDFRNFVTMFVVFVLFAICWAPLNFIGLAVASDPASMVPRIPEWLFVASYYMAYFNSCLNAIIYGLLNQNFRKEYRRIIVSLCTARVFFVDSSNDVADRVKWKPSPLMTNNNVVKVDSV

In general, IC50 refers to the concentration that inhibits the measured activity by half. Low values mean greater potency in that assay, high ones weaker potency in that assay. The term melting point denotes the temperature, or range, at which the solid turns liquid. Take `CC(=O)NCC=C1CCc2ccc3nn(C)cc3c21` [Example 1, N-[2-(2-methyl-6,7-dihydrocyclopenta[e]indazol-8(2H)-ylidene)ethyl]acetamide]: the melting point lay within 200 to 202 °C. Besides, in data set [1], the IC50 is ≤ 100 nM. The IC50 in data set [2] is ≤ 100 nM.
As for `CC(=O)NCCC1CCc2ccc3nn(C)cc3c21` (stereo not shown) [Example 2, N-[2-(2-methyl-2,6,7,8-tetrahydrocyclopenta[e]indazol-8-yl)ethyl]acetamide], the IC50 in data set [1] and in data set [2] was ≤ 100 nM throughout.
For `CC(=O)NCC[C@@H]1CCc2ccc3nn(C)cc3c21` [Example 3], the half-maximal inhibitory concentration (IC50) in data set [1] and in data set [2] was ≤ 100 nM throughout.
Compound `CCC(=O)NCC=C1CCc2ccc3nn(C)cc3c21` [Example 5, N-[2-(2-methyl-6,7-dihydrocyclopenta[e]indazol-8(2H)-ylidene)ethyl]propanamide] showed a melting point of 185 to 187 °C. Besides, in data set [1], the IC50 was ≤ 100 nM. Besides, the IC50 in data set [2] was ≤ 100 nM.
In the case of `CCC(=O)NCCC1CCc2ccc3nn(C)cc3c21` (stereo not shown) [Example 6, N-[2-(2-methyl-2,6,7,8-tetrahydrocyclopenta[e]indazol-8-yl)ethyl]propanamide], the IC50 in data set [1] and in data set [2] was ≤ 100 nM throughout.
In the case of `CC(=O)NCC=C1CCc2ccc3nn(C)c(C)c3c21` [Example 7, N-[2-(1,2-dimethyl-6,7-dihydrocyclopenta[e]indazol-8(2H)-ylidene)ethyl]acetamide], the melting point lay within 200 to 203 °C. The IC50 in data set [1] was ≤ 100 nM. Further, the IC50 in data set [2] is ≤ 100 nM.
In the case of `CC(=O)NCCC1CCc2ccn3ncc(C)c3c21` (stereo not shown) [Example 10, N-[2-(1-methyl-8,9-dihydro-7H-cyclopenta[c]pyrazolo[1,5-a]pyridin-9-yl)ethyl]acetamide], the melting point lay in the range of 121 to 122 °C.
As for `CCOC(=O)c1c(C)nn2ccc3c(c12)C(CCNC(C)=O)CC3` (stereo not shown) [Example 13, ethyl 9-[2-(acetylamino)ethyl]-2-methyl-8,9-dihydro-7H-cyclopenta[c]pyrazolo[1,5-a]pyridine-1-carboxylate], the melting point was 101 to 103 °C.
As for `CC(=O)NCCC1CCc2ccn3nc(C)cc3c21` (stereo not shown) [Example 18, N-[2-(2-methyl-8,9-dihydro-7H-cyclopenta[c]pyrazolo[1,5-a]pyridin-9-yl)ethyl]acetamide], the IC50 in data set [1] and in data set [2] was ≤ 100 nM each time.
In the case of `CC(=O)NCC[C@@H]1CCc2ccn3nc(C)cc3c21` [Example 19, N-{2-[(9S)-2-methyl-8,9-dihydro-7H-cyclopenta[c]pyrazolo[1,5-a]pyridin-9-yl]ethyl}acetamide], the half-maximal inhibitory concentration (IC50) in data set [1] and in data set [2] was ≤ 100 nM throughout.
For `CCc1cc2c3c(ccn2n1)CCC3CCNC(C)=O` (stereo not shown) [Example 21, N-[2-(2-ethyl-8,9-dihydro-7H-cyclopenta[c]pyrazolo[1,5-a]pyridin-9-yl)ethyl]acetamide], the IC50 in data set [1] and in data set [2] was ≤ 100 nM each time.
Consider `CC(=O)NCCC1CCc2ccc3nc(C)cn3c21` (stereo not shown) [Example 22, N-[2-(2-methyl-7,8-dihydro-6H-cyclopenta[e]imidazo[1,2-a]pyridin-8-yl)ethyl]acetamide], for which the IC50 in data set [1] and in data set [2] was ≤ 100 nM each time.
As to `CC(=O)NCC[C@@H]1CCc2ccc3nn(C)c(Br)c3c21` [Example 25, N-{2-[(8S)-1-bromo-2-methyl-2,6,7,8-tetrahydrocyclopenta[e]indazol-8-yl]ethyl}acetamide], the IC50 in data set [1] and in data set [2] was ≤ 100 nM throughout.
Take `CCC(=O)NCCC1CCc2ccn3nc(C)cc3c21` (stereo not shown) [Example 32, N-[2-(2-methyl-8,9-dihydro-7H-cyclopenta[c]pyrazolo[1,5-a]pyridin-9-yl)ethyl]propanamide]: the half-maximal inhibitory concentration (IC50) in data set [1] and in data set [2] was ≤ 100 nM each time.
In turn, `CC(=O)NCCC1CCc2ccn3nc(-c4ccccc4)cc3c21` (stereo not shown) [Example 34, N-[2-(2-phenyl-8,9-dihydro-7H-cyclopenta[c]pyrazolo[1,5-a]pyridin-9-yl)ethyl]acetamide] gave a melting point of 159 to 160 °C. Also, in data set [1], the half-inhibitory concentration (IC50) was ≤ 100 nM.
